# PMC12264943, “Identification of New Human P2X7 Antagonists Using Ligand- and Structure-Based Virtual Screening” (Journal of Chemical Information and Modeling, 2025)
# Tests used:
# Assay type in all cases: cell-based
# hP2X7 [1] = molecular target: T1, hP2X7 (Homo sapiens, UniProt Q99572); test: Membrane Potential Red (MPR) dye assay, HEK-293 cells stably transfected with hP2X7; conditions: hP2X7 HEK-293
# T1 construct: expressed in transfected cells; host or cells: HEK-293, stably transfected (gift of E. Adinolfi's group, Ferrara University)
# T1 sequence (Q99572 1-595): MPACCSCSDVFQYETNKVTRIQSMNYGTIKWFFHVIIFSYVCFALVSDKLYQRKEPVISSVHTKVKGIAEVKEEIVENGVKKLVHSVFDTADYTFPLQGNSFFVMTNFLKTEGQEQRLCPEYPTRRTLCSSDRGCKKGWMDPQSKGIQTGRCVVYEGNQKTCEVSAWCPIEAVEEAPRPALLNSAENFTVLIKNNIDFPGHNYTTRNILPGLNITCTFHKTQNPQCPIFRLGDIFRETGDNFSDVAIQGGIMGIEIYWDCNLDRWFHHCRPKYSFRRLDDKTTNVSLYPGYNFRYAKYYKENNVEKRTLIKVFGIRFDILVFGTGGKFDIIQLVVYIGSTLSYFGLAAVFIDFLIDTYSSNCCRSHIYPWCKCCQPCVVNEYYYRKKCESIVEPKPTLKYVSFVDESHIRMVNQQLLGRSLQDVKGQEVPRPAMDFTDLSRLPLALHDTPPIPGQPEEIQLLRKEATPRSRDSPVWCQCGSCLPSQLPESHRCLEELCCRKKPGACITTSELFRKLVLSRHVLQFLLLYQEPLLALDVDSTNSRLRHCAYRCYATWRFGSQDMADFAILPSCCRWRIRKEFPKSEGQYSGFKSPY
# Procedure: (§1) Astrocytoma 1321 N1 (established by Dr. Gaia Pasqualetto) and HEK-293 (kindly gifted by E. Adinolfi’s group, Ferrara University) both stably transfected with hP2X7, were used to assess the activity of the small molecules selected from the VS. Cells were maintained in DMEM:F12 (PanBiotech) supplemented with 10% FBS, 1% pen-strep, and 150 μg/mL G418 (PanBiotech).
# Cells were plated as described for the YO-PRO 1 dye uptake assay. MPR dye (Molecular Devices) was prepared following the manufacturer’s protocol and diluted 1:10 in ECS-LD buffer. After washing with DPBS, cells were incubated with the dye for 30 min at 37 °C. Fluorescence changes (excitation: 525 nm; emission: 560 nm) were recorded using a Clariostar plate reader during ATP-induced membrane depolarization. Baseline fluorescence was recorded for 5 cycles, and ATP was added via an automated injector (10 μL). Membrane depolarization was quantified as the ratio of the maximal fluorescence change over baseline intensity (Δ(F max–F0)/F0)).
# (§2) 4 Evaluation of compound 2 and 9 analogue activity using YO-PRO 1 and MPR assays. The activity of compound 2 (A and B) and 9 (C and D) analogues was evaluated in YO-PRO 1 (A and C) and MPR (B and D) assays. The compounds were tested at 10 μM and preincubated for either 20 (YO-PRO 1) or 30 min (MPR). The baseline was recorded for 5 cycles before ATP treatment (1 mM). Fluorescence was recorded for 25 (YO-PRO 1) or 5 min (MPR). The data were normalized by setting as 100% for the fluorescence measured from hP2X7 HEK-293 cells incubated with vehicle (0.1% DMSO) and treated with 1 mM ATP and 0% for the fluorescence recorded by the cells not treated with ATP. The data shown correspond to three independent biological replicates (3 technical replicates per experiment; error bars represent the SEM from the mean values of each biological replicate (n = 3)). The statistical analysis was performed with one-way Anova using Dunnett’s function (P**** < 0.0001; P*** < 0.0003; P** < 0.002; P* < 0.02).
# hP2X7 [2] = molecular target: T1, hP2X7; test: YO-PRO 1 dye uptake assay, HEK-293 cells stably transfected with hP2X7; conditions: for hP2X7 inhibition in YO-PRO 1 dye uptake, SAR / reduction of hP2X7 activity: analogues at 10 μM; for hP2X7 inhibition in YO-PRO 1 dye uptake, SAR: 1 mM ATP; for reduction of hP2X7 activity: YO-PRO 1, 1 mM ATP, 0.1% DMSO
# Procedure: as §1
# Astrocytoma 1321 N1 cells (2–2.5 × 10^4 cells/well) and HEK-293 cells (4–5 × 10^4 cells/well) expressing hP2X7 were seeded in poly-L-lysine-coated 96-well plates (Sarstedt) 24 h before the experiment. YO-PRO 1 dye was prepared at 5 μM in extracellular solution with low divalent cations (ECS-LD) buffer (147 mM NaCl, 10 mM HEPES, 13 mM glucose, 0.2 mM CaCl2, 2 mM KCl, pH 7.4) and added to cells after washing them with Dulbecco’s phosphate- buffered saline (DPBS) (PanBiotech) and incubated for 20 min at 37 °C. ATP-induced dye uptake, mediated by hP2X7 activation, was monitored using a Clariostar plate reader (excitation: 485 nm; emission: 538 nm) for 30 cycles (75–150 s/cycle), after recording the baseline for five cycles. hP2X7 activation was quantified at cycle 10 by calculating the fluorescence intensity (FI) ratio (Δ(Fcycle 10–F cycle 1)/cycle time).
# Compounds 2 and 9, identified as hits, were further evaluated for concentration-dependent inhibition (IC50) of hP2X7 activation in the YO-PRO 1 dye uptake assay using HEK-293 cells stably transfected with hP2X7 (unfortunately, at this point in the study, the stably transfected 1321N1 cells lost P2X7 expression, and we were unable to recover them from frozen aliquots), for which the ATP EC50 was determined to be approximately 1 mM (Supporting material Figure 4C). Seven concentrations (100 to 0.03 μM) were tested, but due to precipitation at 100 μM, the DMSO concentration was increased to 1%.
# 3 Inhibitory concentration response evaluation of compounds 2 and 9 and their groups highlighted for SAR. […] Compound activity was evaluated along a time of 20 min (75 s per cycle) after ATP addition (700 μM). The fluorescence intensity (FI) values of the first 10 cycles were considered for assessing their ability to inhibit hP2X7. The curves represent three biological replicates (n = 4 per replicate). Data were normalized by setting as 100% the FI recorded by hP2X7 HEK-293 cells incubated in 1% DMSO and stimulated by ATP, and as 0% the FI recorded by the same cells but treated with ECS-LD (assay buffer). (C) Highlighted areas of compound 2 considered for SAR study. R1 refers to the ethyl-benzyl group of the molecules, and R2 and R3 refer to the benzo-(1,3)-dioxol groups. (D) Highlighted areas of compound 9 considered for SAR study. We have defined the area highlighted in yellow and numbered as 1 as the “front” region of the molecule and the one colored in pink and named as 2 as the “back” region of the molecule. L highlights the urea and amide linkers of compounds 2 and 9, respectively.
# as §2
# HEK-293 WT cells = test: Cytotoxicity assay (CellTiter Blue); conditions: 10 μM, 24 h, nontransfected HEK-293 cells
# Procedure: HEK-293 WT cells were seeded at 4 × 10^4 cells/well in 96-well plates precoated with poly-L-lysine. After 24 h, the cells were washed with DPBS and treated with test compounds (10 μM) in 2% FBS-containing medium for 24 h. After this, the medium containing the test compounds was replaced with 20% CellTiter-Blue reagent (Promega) in 2% FBS medium. After a 2-h incubation, fluorescence (excitation: […]; emission: […]) was measured using a Clariostar plate reader. Data were normalized to untreated control cells (100%) and wells without cells (0%).
# 5 Concentration inhibition curve determination for compound 2g (A) and evaluation of cytotoxicity for compounds 2, 9, and 2g. […] The data on the graph represent the mean from three independent experiments (n = 3 replicates per experiment). (B) The cytotoxicity of the compounds was evaluated on nontransfected HEK-293 cells using a CellTiter Blue assay. The cells were incubated for 24 h with the compounds at 10 μM. The fluorescent signal obtained from vehicle-treated cells (0.1% DMSO) was used to normalize the data to 100%, and the one obtained from wells not containing cells (BLANK) was set as 0%. The data are the combination of three biological replicates (error bars represent the SEM (n = 3)) analyzed by one-way ANOVA using Dunnet’s function (P**** < 0.0001; **< 0.002; * < 0.02; ns, non significant).
# The potential cytotoxicity of the hit compounds identified, 2, 9, and 2g, was assessed at 10 μM by CellTiter Blue assay using nontransfected HEK-293 cells (Figure B).
SMILES,"inhibition at 10 µM (hP2X7 [1]; HEK293, 1 mM ATP) [%]","IC50 (hP2X7 [2]; YO-PRO 1 dye uptake, hP2X7 HEK-293 cells, 100 to 0.03 μM, 1% DMSO, read-out: IC50, inhibition of hP2X7 activation) [nM]","hP2X7 inhibition in YO-PRO 1 dye uptake, SAR (hP2X7 [2])",reduction of hP2X7 activity (hP2X7 [2]) [%],reduction in cell viability (HEK-293 WT cells) [%],"activity in MPR assay (hP2X7 [1]; 10 μM, 1 mM ATP)"
O=C(Nc1ccc2c(c1)OCO2)NC(Cc1ccc(F)cc1)Cc1ccc(F)cc1 [Compound 2g],70,1310,retained potency comparable to that of the hit compound,80,~10,–
COc1ccc(CC(Cc2ccc3c(c2)OCO3)NC(=O)c2ccc(NC(C)=O)cc2)cc1 (centres unmarked) [Compound 2k],–,–,still reduced receptor activation,80,–,diminished activity relative to the other structural analogues
